Results as given in patent US20060167229A1, “Biologically active peptide conjugates” (priority 2002, published 2006).
“And” between values parts separate entries of the source, which are not always exact repeats. Identical values can stand only once. Marks after values point to notes of the source that are not given here. Ends that are not written are not given here.

Assays:
IL-2 = assay: T lymphocyte IL-2 secretion test (HT-2 cell bioassay of ConA supernatant); format: in vivo, BALB/c mice; conditions: for activity of T lymphocyte in secreting IL-2, X ± SD (IU): healthy mice
Procedure: Spleen cells of density 1×10^6/ml were placed onto a 96 wells cell culture plate, 100 μL/well, three parallel wells each of the assay sample and control sample per mouse. To the assay wells, 100 μl/well ConA of 100 μg/ml in RPMI-1640 was added, and […] plain RPMI-1640 was used for the controls. The cells were incubated for 66 hrs at 37° C., 5% CO2. The cells were then pelleted by centrifugation at 150 g for 10 minutes.
HT-2 cells at log phase were collected by centrifugation at 150 g for 10 minutes, and washed three times with cold Hank's solution by re-suspension and centrifugation. The collected HT-2 cells were re-suspended in RPMI-1640 and incubated at 37° C., 5% CO2 for 30 minutes. The cells were further washed twice with RPMI-1640 by re-suspension and centrifugation, and re-suspended to final concentration of 2×10^5/ml with RPMI-1640.
rIL-2 was diluted to the following concentration with RPMI-1640: 500 IU/ml, 250 IU/ml, 125 IU/ml, 62.5 IU/ml, 31.25 IU/ml, and […].
The plate was incubated at 37° C., 5% CO2 for 68 hours, then centrifuged at 150 g for 15 minutes and the supernatant removed. 100 μl 0.5 mg/ml MTT in RPMI-1640 without phenolsulfonphthalein was added into each well. After shaking for 3-4 minutes to re-suspend the cells, continue to incubate for another 4 hours. Samples were then centrifuged at 150 g for 15 minutes and the supernatant was removed. To each well, 120 μl 40 mM HCl-2-propanol was added, mixed for 3-4 minutes and OD analyzed at 570 nm, referenced at 630 nm with an ELISA plate reader.
The average OD of the three parallel wells of each dilution was taken and plotted against concentration on a semi-log paper, concentration on the X-axis. The concentration at 50% OD saturation was obtained for both the testing supernatant and rIL-2.

spleen = assay: Immunity organ weight test, spleen index; format: in vivo, BALB/c mice; conditions: for weight of spleen (spleen index), X ± SD (%): healthy mice, saline 0.53 ± 0.05; for effect on the weight of the spleen (summary): statistically significant difference from saline in any of the dosage groups 0.5-500 μg/kg/day
Procedure: One day after the last test substance administration (day 16), the liver, spleen, and thymus gland were separated and blotted dry with filter paper and weighed. The phagocytosis index α was calculated as below: α=(^3√{square root over ( )}K)(W÷WLS)
Spleen index (%)=(spleen weight/body weight)×100%

[1] = system: ascitic fluid type liver cancer H22; assay: Survival of mice with transplanted ascitic fluid type liver cancer H22; format: in vivo, BALB/c mice; conditions: for Survival days: saline 26.2 ± 6.8
Procedure: Intraperitoneal injection, once per day. […] Treatment of all groups with testing substance lasted for 30 days or until the animal died unless otherwise specified.
Stock H22 cells were incubated in DMEM/F12 medium supplemented with 10% fetal bovine serum, 37° C./5% CO2 for 72 hrs, then washed 3-4 times with Hank's solution at room temperature. Adjust cell concentration to 1-2×10^9 per litre with Hank's solution. 0.2 ml of the cell suspension was implanted to the abdominal cavity of several BALB/c mice for 6-8 days. The mice were killed by cervical vertebra dislocation. Ascitic fluid of the mice was collected aseptically and the cell concentration adjusted to 1×10^6 per ml with Hank's solution. 0.2 ml of the cell suspension was implanted into the abdominal cavity of healthy mice to generate the H22 carrying mouse model for ascitic fluid type liver cancer. Administration of test substance started as described in section Method 1. Survival data of the mice was recorded. If the animal survived longer than the experiment, the survival days was recorded as the duration of the experiment. Mean survival day was obtained by the Kaplan-meier method in the Survival option of the SPSS software. The survival index was calculated according to the following formula: Survival index=(mean survival days in treatment group−mean survival days of control group)÷mean survival days of control group×100% 4. The Effect of Peptides on the Cellular Immunity of BALB/c Mice with Transplanted Ascitic Fluid Type Liver Cancer H22 4.1 Preparation of Spleen Cell Suspension^[1,4]

interferon (IFN) = system: interferon (IFN); design: species or system BALB/c mice; conditions: mouse, in vivo; for activity of T lymphocyte in secreting IFN, X ± SD (IU): ip
T lymphocyte = T lymphocyte transformation test (ConA-stimulated spleen cells of treated mice, MTT); format: in vivo, BALB/c mice; conditions: for X ± SD (stimulation index): healthy mice, saline 1.3 ± 0.1; for effect on T lymphocyte transformation (summary): statistically significant difference from saline in any of the dosage groups 0.5-500 μg/kg/day
Procedure, shortened: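 Mice (10/group) received substances i.p. in 0.5 ml saline daily for 15 days; next day splenocytes (1×10^6/ml) were cultured 66 h at 37 °C with or without ConA (100 μg/ml stock added). MTT was added for 4 h and OD570 (ref 630 nm) read; stimulation index = mean ConA OD / mean control OD per mouse.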

[2] = peptide 0.51 g/kg/day (so in the source) i.p. 15 days (IFN-γ, IL-2 3×10^5 IU/kg/day), saline 38 ± 13
[3] = peptide 500 μg/kg/day i.p. 15 days
[4] = peptide 0.5 μg/kg/day i.p. 15 days (IFN-γ, IL-2 3×10^5 IU/kg/day)
[5] = dose 0.5 μg/kg i.p. once per day
[6] = dose 50 μg/kg i.p. once per day
[7] = Table 28, peptide 5 μg/kg/day (so in the source) i.p. 15 days (IFN-γ, IL-2 3×10^5 IU/kg/day)
[8] = peptide 500 μg/kg/day i.p. 15 days (IFN-γ, IL-2 3×10^5 IU/kg/day)

## RVAPQQHPTL [CMS011]
IL-2; [2]
  activity of T lymphocyte in secreting IL-2, X ± SD (IU): 101 ± 19*^@^ IU
IL-2; statistically significant difference from saline in any of the dosage groups 0.5-500 μg/kg/day
  effect on the secretion of interleukin-2 (IL-2) by T lymphocytes (summary): enhance
spleen; [3]
  weight of spleen (spleen index), X ± SD (%): 0.41 ± 0.04 %
spleen
  effect on the weight of the spleen (summary): decrease
[1]; dose 5 μg/kg i.p. once per day
  Survival index (%): 60.2%
  Survival days: 36.4 ± 22.2*^& days
Interferon (IFN)
  effect on the secretion of IFN by T lymphocytes (summary): enhance
  activity of T lymphocyte in secreting IFN, X ± SD (IU): 89 ± 18 IU
T lymphocyte; [4]
  X ± SD (stimulation index): 1.6 ± 0.4
T lymphocyte
  effect on T lymphocyte transformation (summary): enhance

## Tyr Ser Leu (YSL; listed as Sus scrofa) [CMS024]
spleen; [3]
  weight of spleen (spleen index), X ± SD (%): 0.34 ± 0.05 %
spleen
  effect on the weight of the spleen (summary): decrease
[1]; 0.5 μg/kg/day
  postmortem examination of the mice surviving longer than 90 days: did not show sign of tumor establishment
[1]; 0.5 μg/kg/day, n=6, two months after the experiment ended
  mice that could survive longer than 90 days: more than 30%
[1]; [5]
  Survival index (%): 76.9%
  Survival days: 46.4 ± 14.8*^^&$ days
[1]; dose 5 μg/kg i.p. once per day
  Survival index (%): 54.8%
  Survival days: 40.6 ± 14.6*^&$ days
[1]; [6]
  Survival index (%): 38.4%
  Survival days: 36.3 ± 12.7*^&$ days

## KAVGHLDDLPGAL [CMS008]
spleen; [7]
  weight of spleen (spleen index), X ± SD (%): 0.39 ± 0.08 %
spleen
  effect on the weight of the spleen (summary): decrease
[1]; dose 5 μg/kg i.p. once per day
  Survival index (%): 67.8%
  Survival days: 50.7 ± 20.9*^& days
T lymphocyte; [4]
  X ± SD (stimulation index): 1.7 ± 0.3
T lymphocyte; [8]
  X ± SD (stimulation index): 1.7 ± 0.1
T lymphocyte
  effect on T lymphocyte transformation (summary): enhance

B1: IFN-γ: recombinant mouse IFN-γ (rmIFN-γ), Beijing Biotech Inc.; positive control (protein, UniProt P01580 23-155, looked up)
Interferon gamma: HGTVIESLESLNNYFNSSGIDVEEKSLFLDIWRNWQKDGDMKILQSQIISFYLRLFEVLKDNQAISNNISVIESHLITTFFSNSKAKKDAFMSIAKFEVNNPQVQRQAFNELIRVVHQLLPESSLRKRKRSRC
IL-2; peptide 5 μg/kg/day i.p. 15 days (IFN-γ, IL-2 3×10^5 IU/kg/day), saline 37 ± 9
  activity of T lymphocyte in secreting IL-2, X ± SD (IU): 96 ± 14 IU
IL-2; peptide 50 μg/kg/day i.p. 15 days (IFN-γ, IL-2 3×10^5 IU/kg/day), saline 39 ± 10
  activity of T lymphocyte in secreting IL-2, X ± SD (IU): 99 ± 16 IU
IL-2; peptide 500 μg/kg/day i.p. 15 days (IFN-γ, IL-2 3×10^5 IU/kg/day), saline 39 ± 10
  activity of T lymphocyte in secreting IL-2, X ± SD (IU): 100 ± 18 IU
IL-2; [2]
  activity of T lymphocyte in secreting IL-2, X ± SD (IU): 87 ± 15 IU
spleen; [7]
  weight of spleen (spleen index), X ± SD (%): 0.50 ± 0.04%
spleen; [4]
  weight of spleen (spleen index), X ± SD (%): 0.50 ± 0.04%
[1]; control rmIFN-γ 3 × 10^5 IU/kg
  Survival index (%): 6.1%
[1]; controls: rhIL-2, rmIFN-γ 3 × 10^5 IU/kg, cyclophosphamide 20 mg/kg
  Survival days: 27.8 ± 7.5 days
Interferon (IFN)
  activity of T lymphocyte in secreting IFN, X ± SD (IU): 139 ± 16 IU and 125 ± 18 IU and 124 ± 16 IU
T lymphocyte; [4]
  X ± SD (stimulation index): 1.6 ± 0.2
T lymphocyte; peptide 5 μg/kg/day i.p. 15 days (IFN-γ, IL-2 3×10^5 IU/kg/day)
  X ± SD (stimulation index): 1.6 ± 0.2
T lymphocyte; peptide 50 μg/kg/day i.p. 15 days (IFN-γ, IL-2 3×10^5 IU/kg/day)
  X ± SD (stimulation index): 1.7 ± 0.2
T lymphocyte; [8]
  X ± SD (stimulation index): 1.6 ± 0.2
